In series [1] the test system is healthy male subjects. The series is described as follows: Effect of graded intravenous doses of synthetic human GLP-1 on food intake (Example 1). To be noted: for Calorie intake / Fluid intake / Food quantity / Meal duration: 16 healthy male subjects, mean, SEM. The protocol:
A randomized, double-blind design was carried out with 16 healthy men aged 23.6±0.5 years. The weight of all subjects was within normal range considering their age, sex, and height. Each subject gave written informed consent for the study.
Four treatments (0, 0.375, 0.75 and 1.5 pmol/kg), separated by at least 7 days, were administered to the 16 subjects. […] An identical standard meal was presented to the subjects on each occasion. The meal consisted of orange juice as an appetizer (480 kcal per 1); ham sandwiches (60 g bread, 10 g butter, 25 g ham 266 kcal per sandwich) and more orange juice and chocolate pudding (172 kcal per 100 g): coffee with cream and sugar (coffee could be sweetened if desired; therefore both cream and sugar were optional @ 12 g cream=20 kcal, 4.5 sugar=18 kcal). No other food or liquid was allowed during the study. At the end of the study, the amount of food eaten and the amount of fluid ingested was measured by absolute weight from which total caloric intake (food and fluid intake) was calculated.
Each subject was free to eat and drink as much as they wished, but the order of food intake had to follow the above schedule. To reduce participant's awareness of the amount of food being provided, food was served in excess.
On the first day of each treatment, each subject ate breakfast, if this was their normal custom; however, no snacks were allowed after 8:00 a.m. […] Infusions were delivered by ambulatory infusion pumps through a teflon catheter inserted into a forearm vein. Participants were able to sit, eat, stand and walk comfortably while receiving infusions. At 60 minutes after the start of the respective infusion, the test meal was presented and each participant was invited to eat and drink as much as they liked.
Beginning at 12:00 noon, the subjects scored their subjective feelings of hunger and fullness at 15 minute intervals throughout the treatments using a visual analogue scale of 0–10 and indicated the scores on a questionnaire. The scales and scores were designed as previously described (Welch I. M. et al. Gut 29:306–311 (1988); Welch I. M. et al. Gastroenterology 89:1293–1297 (1985); Drewe, J. et al. Gastroenterology 102:1654–1659 (1982)). For example, a score of 0 for hunger indicated the subject was not hungry at all, 2 indicated slightly hungry, 5 indicated moderately hungry, 8 indicated very hungry, and 10 indicated absolutely ravenous.
The quantity of food eaten and volume of fluid drunk was measured. The time for each subject to complete their meal was also measured. From these observations, the average rate of food and fluid intake, as well as the calorie intake, could be calculated. In the pre-meal period and after eating, blood was drawn at regular intervals into ethylenediaminetetraacetic acid (EDTA) tubes containing aprotinine (1000 KIU/ml blood) for glucose and hormone determinations.
The peptide was dissolved in 0.9% saline containing 0.5% human serum albumin, and prepared under aseptic conditions. Aliquots of 50 μg/5 ml were stored at −20° C. […] Treatments were delivered in a double-blind fashion.
The amount of food eaten and the amount of fluid drunk, the corresponding energy intake, and the duration of meal consumption were compared between the four by one-way analysis of variance (ANOVA) using the general linear model (GLM) procedure of the SAS software package (SAS Release 6.03. Cary, N C: SAS Institute, 1988). In the event of significant differences, ANOVA was followed by the Newman-Keuls multi-comparison test for pairwise comparisons (Sachs, L. Angewandte Statistik. Berlin, Springer, (1984)). […] Scores for hunger and fullness were compared at the different time points before and after meals between the different treatments using multiple paired t-tests with Bonferroni correction (Sachs, L. Angewandte Statistik. Berlin, Springer, (1984)).

A short description of series [2]: Plasma glucose and hormone concentrations during GLP-1 infusion (Example 2). Format: in vivo, human. To be noted: diabetes mellitus type 2. The procedure: Blood was drawn through the indwelling anticubital cannula into syringes on ice. These contained EDTA (6 μmol/l) and aprotinine (1000 KIU/l). After centrifugation, plasma hormone analyses were kept frozen at −20° C. Plasma glucose was analyzed by the glucose oxidase method. Insulin and glucagon concentrations in plasma were analyzed by commercially available radioimmunoassay kits (Biermann, Bad Nauheim, Germany). Immunoreactive GLP-1 was measured using the specific polyclonal antibody GA 1178 (Affinity Research, Nottingham, UK). Immunoreactivities were extracted from plasma samples on C-18 cartridges using acetonitrile for elution of samples. The detection limit of the assay was 0.25 pmol/l. Intra-and interassay coefficients of variation were 3.8% and 10.9%, respectively.
Differences were considered significant if p was <0.05.

A short description of series [3]: Plasma glucose and hormone concentrations during graded GLP-1 infusion (Example 1). Format: in vivo, human. To be noted: healthy male subjects. The protocol:
Glucose concentrations were measured by the hexokinase method. Plasma hormone concentrations of insulin, cholecystokinin, GLP-1 and leptin were measured as depicted in FIG. 1. All hormone concentrations were determined by specific radioimmunoassay systems. For insulin and leptin concentrations commercially available test kits were used. […] GLP-1 was measured as previously described (Schirra, J. et al. Proc. Assoc. Am. Phys. 109(1):84–971 (1997)). The detection limit of the GLP-1 assay was 2 fmol/tube. […] Intra-assay and inter-assay coefficients of variation were 3.4% and 10.4%, respectively.

Series [4] has as its system rats. To be noted: cited from earlier work.
Series [5] relates to patients with diabetes mellitus type 2. The series is described as follows: Effect of GLP-1 infusion on eating behaviour in diabetes mellitus type 2 (Example 2). The procedure: Twelve male patients were recruited for the study who had diabetes mellitus type 2 for at least one year. Patients were admitted to a Research Unit after given written informed consent and after the experimental protocol had been explained to them. The mean age of the patients was 55±2 years; their mean HbA1C was 8.1±4 and their mean BMi was 29.4±1.2. Seven patients were on oral antidiabetics. The participants were tested on two different days in a placebo-controlled, randomized, double-blind, crossover study. The two test days were separated by at least one week and by no more than three weeks.
On each test day, patients arrived in the Research Unit in the morning, having fasted overnight. A standardized, fixed energy breakfast was then served and it had to be completed before 8:30 a.m. After breakfast, patients were able to read and listen to music. At 11:00 a.m., two venflon catheters were inserted into the anticubital veins of each arm, one for infusion, the other one for blood drawing. […] Infusions were delivered by ambulatory infusion pumps. 60 min after the start of the respective infusion, a test meal was presented and the participants were invited to eat and drink as much as they liked.
Beginning with the infusions, participants scored their subjective feelings of hunger and fullness in 15 min intervals throughout the experiments using visual analogue scales (VAS) of 0–10 with text expressing the most positive and most negative rating anchored at each end. VAS were used to assess hunger, fullness, and prospective food consumption using scales and scores which have previously been designed.
Each subject was free to eat and drink as much as they wished until “comfortably satisfied” of a standard meal which consisted of a) orange juice as an appetizer (480 kcal/l); b) ham sandwiches (60 g, 10 g butter, 25 g ham: 266 kcal/sandwich) with more orange juice or with water; c) strawberry mousse (100 kcal/100 g); d) coffee with cream (coffee could be sweetened with aspartam if desired; both cream and aspartan were optional; 12 g cream=20 kcal). No additional food or fluid was allowed during the study. In addition, the order of food intake had to follow the above schedule. To reduce participants' awareness of the amount of food being provided, food was served in excess. The quantity of food eaten and the quantity of fluid drunk were measured. From these observations, the total energy intake could be calculated. In the pre-meal period and after eating, blood samples were taken in regular intervals for glucose and hormone determinations. Adverse events were assessed by the attending physician through close observation of each patient; in addition, each participant was questioned after each experiment and after they had completed the two tests whether they had experienced any adverse events.
The peptide was dissolved in 0.9% saline solution containing 0.5% human serum albumin and prepared under aseptic conditions by the University of Basel Hospital Pharmacy. Aliquots of 50 μg/5 ml were stored at −20° C. […] The solutions were prepared by a pharmacist who was not involved in the study. The physician in charge of the experiment was therefore not aware of the respective treatment, thereby making it possible to conduct treatments in a double-blind fashion.
The amount of food eaten and the amount of fluid drunk as well as the corresponding energy intake were compared between the two treatments by Wilcoxon Signed Ranks Test using an SAS software package. […] Scores for hunger and fullness were compared by calculating the S score from baseline (0 min) to 60 min of infusion using the Wilcoxon Signed Ranks Test. Differences were considered significant if p was <0.05.

The subject of series [6] is obese humans. To be noted: infusion of GLP-1 over 210 minutes; cited from earlier work.
Where [7] appears, read: GLP-1 0.375 pmol/kg/min i.v. infusion.
Setting [8] is: GLP-1 0.75 pmol/kg/min i.v. infusion.
The mark [9] stands for this setting: GLP-1 1.5 pmol/kg/min i.v. infusion.
[10] abbreviates: pre-meal period, significant only for highest dose of GLP-1, healthy male subjects.
The mark [11] stands for this setting: GLP-1 1.5 pmol/kg per min i.v. vs saline, diabetes mellitus type 2.
Where [12] appears, read: GLP-1 1.5 pmol/kg per min i.v., 12 patients with diabetes mellitus type 2, mean ± SEM.
The mark [13] stands for this setting: pre-meal period, baseline vs 60 min of infusion, diabetes mellitus type 2.

“Also recorded” adds a separate entry of the source. Like-named read-outs stand apart in the source and are kept apart here.

For the compound `CC[C@H](C)[C@H](NC(=O)[C@H](Cc1ccccc1)NC(=O)[C@H](CCC(=O)O)NC(=O)[C@H](CCCCN)NC(=O)[C@H](C)NC(=O)[C@H](C)NC(=O)[C@H](CCC(N)=O)NC(=O)CNC(=O)[C@H](CCC(=O)O)NC(=O)[C@H](CC(C)C)NC(=O)[C@H](Cc1ccc(O)cc1)NC(=O)[C@H](CO)NC(=O)[C@H](CO)NC(=O)[C@@H](NC(=O)[C@H](CC(=O)O)NC(=O)[C@H](CO)NC(=O)[C@@H](NC(=O)[C@H](Cc1ccccc1)NC(=O)[C@@H](NC(=O)CNC(=O)[C@H](CCC(=O)O)NC(=O)[C@H](C)NC(=O)[C@@H](N)Cc1c[nH]cn1)[C@@H](C)O)[C@@H](C)O)C(C)C)C(=O)N[C@@H](C)C(=O)N[C@@H](Cc1c[nH]c2ccccc12)C(=O)N[C@@H](CC(C)C)C(=O)N[C@H](C(=O)N[C@@H](CCCCN)C(=O)NCC(=O)N[C@@H](CCCNC(=N)N)C(N)=O)C(C)C` [GLP-1, Glucagon-like peptide-1 (7–36) amide], in series [1] (setting [7]), the Calorie intake stood at 1520 ± 95 keal, the Fluid intake is 748 ± 52 mL, the Food quantity is reported as 531 ± 35 and the Meal duration was determined as 35 ± 3 min. In series [1] (setting [8]), this compound returned a Calorie intake of 1451 ± 101 keal, a Fluid intake of 689 ± 48 mL, a Food quantity of 516 ± 40 and a Meal duration of 34 ± 3 min. Also, in series [1] (setting [9]), the Calorie intake came to 1107 ± 84 keal, the Fluid intake turned out to be 584 ± 45 mL, the Food quantity is listed as 384 ± 34 and the Meal duration turned out to be 30 ± 3 min. Further, the “reduction of fluid ingestion” value in series [1] (GLP-1 i.v. infusion vs control, healthy male subjects) is listed as 18%. The “side effects / adverse reactions” value in series [1] (any infusion (0.375-1.5 pmol/kg per min i.v.), healthy male subjects) is on record as “None of the participants reported any abdominal discomfort or side effects; also recorded: no overt side effects”. Further, in series [1] (setting [10]), the “subjective feeling of fullness (visual analogue scale 0–10)” value is listed as “concomitant feeling of fullness; also recorded: early fullness” and the “subjective feeling of hunger (visual analogue scale 0–10)” value was “reduced degree of hunger; also recorded: less hunger”. Besides, the glucagon response entry in series [2] (GLP-1 1.5 pmol/kg per min i.v. vs saline) is “significantly reduced”. Moreover, in series [2] (GLP-1 1.5 pmol/kg per min i.v.), the “plasma concentrations of GLP-1” value is reported as “increased the plasma concentrations of GLP-1”. In addition, the “blood glucose AUC” value in series [2] (GLP-1 1.5 pmol/kg per min i.v., saline 1197±101) was found to be 765 ± 65 mmol·min/L. For the same compound, in series [2] (GLP-1 1.5 pmol/kg per min i.v., saline 1775±357), the “insulin AUC” value is reported as 2920±516 μU×min/L. In addition, the leptin levels result in series [3] (any dose of GLP-1 administered) was “did not change”. Also, the “blood glucose and plasma insulin concentrations” value in series [3] (graded i.v. doses of GLP-1 in 5% glucose) is on record as “dose-dependent, short-lasting increase”. Further, the “plasma GLP-1 concentration” value in series [3] (highest dose of GLP-1 (1.5 pmol/kg per min) i.v. infusion) is “supraphysiological plasma concentrations”. Moreover, the “plasma CCK concentrations” value in series [3] (pre-meal period, any dose of GLP-1) is recorded as “did not change”. For the same compound, the “food intake / feeding” value in series [4] (intracerebroventricular administration, fasted rats) is given as “reduce food intake; also recorded: inhibited feeding”. In series [4] (intraperitoneal application, rats), the food intake result is on record as “did not have any effect”. Moreover, in series [5] (setting [11]), the “decrease in calorie intake” value turned out to be 27% and the “maximal reduction in food consumption” value was 29%. In addition, in series [5] (setting [12]), the Calorie intake turned out to be 694 ± 79 kcal, the Fluid intake was 360 ± 60 mL and the “Food quantity” value was found to be 268 ± 31 g. Also, in series [5] (GLP-1 1.5 pmol/kg per min i.v., diabetes mellitus type 2), the “side effects / adverse reaction” value is on record as “None of the participants reported any abdominal discomfort or side effects”. For the same compound, in series [5] (setting [13]), the “fullness (VAS 0–10)” value is on record as “increased feeling of fullness” and the “hunger (VAS 0–10)” value was “reduced degree of hunger”. Further, the effect on appetite entry in series [6] is “no effect on appetite”.
Take exendin (9–39) [reference compound]: in series [4] (GLP-1 injected into the cerebral ventricles of fasted rats), the “effect on GLP-1-induced inhibition of feeding” value was “blocked”. Further, in series [4] (exendin (9–39) alone, satiated rats), the food intake entry is on record as “doubled food intake”.

Source of the values: patent US6998387B1, “Human appetite control by glucagon-like peptide receptor binding compounds” (Amylin Pharmaceuticals, Inc., priority 1998, dated 2006).
